Experimental data: ChEMBL document CHEMBL5365543, “Benzamidine Conjugation Converts Expelled Potential Active Agents into Antifungals against Drug-Resistant Fungi” (J Med Chem, 2023)
≈ marks a conversion by molar mass, not a printed value. Calls of active or inactive are those of the source. No cut-off for these calls is given here.

Tests used:
[1] = Selectivity ratio of IC50 for cytotoxicity against human HBE cells to MIC80 for antifungal activity against clinical isolate fluconazole-resistant Candida auris CBS12774; type: toxicity, cell-based
[Candida] auris [2] = Inhibition of biofilm formation in clinical isolate fluconazole-resistant Candida auris CBS12774 measured after 24 hrs by alamar blue staining based colorimetric analysis; type: functional, organism-based; details: Candidozyma auris, dose 4-32 µg/ml
Candida albicans [3] = assay: Inhibition of biofilm formation in fluconazole-resistant clinical isolate Candida albicans Gu5 at 2 microg/ml measured after 24 hrs by alamar blue staining based colorimetric analysis; type: functional, organism-based; details: dose 2.0 µg/ml
Candida albicans [4] = assay: Antifungal activity against clinical isolate fluconazole-resistant Candida albicans Gu5 harbouring TAC1 mutation overexpressing efflux pump CdrL and Cdr2 assessed as inhibition of fungal growth measured after 24 hrs by CLSI based microtiter plate analysis; type: functional
[5] = Selectivity ratio of IC50 for cytotoxicity against human HBE cells to MIC80 for antifungal activity against clinical isolate fluconazole-resistant Candida albicans CA632; type: toxicity, cell-based
Candida albicans [6] = assay: Antifungal activity against clinical isolate fluconazole-resistant Candida albicans Gu5 infected in BALB/c mouse assessed as fold reduction in kidney fungal burden at 6 mg/kg, ip administered on day 1 and day 3 post fungal infection measured after 7 days; type: functional; details: time 7 day
Candida albicans [7] = assay: Antifungal activity against wild-type Candida albicans SC5314 assessed as decrease in viable count at 2 to 4 microg/ml by colony-counting based time-killing kinetics assay; type: functional, organism-based; details: dose 2-4 µg/ml, time 24.0 hrs, TDE = time-dependent effect
Candida albicans [8] = assay: Antifungal activity against clinical isolate fluconazole-resistant Candida albicans G5 harbouring MRR1 mutation overexpressing MdrL assessed as inhibition of fungal growth measured after 24 hrs by CLSI based microtiter plate analysis; type: functional
Candida albicans [9] = assay: Antifungal activity against wild-type Candida albicans SC5314 assessed as decrease in viable count measured after 24 hrs by colony-counting based time-killing kinetics assay; type: functional, organism-based; details: dose 2-4 µg/ml
[Candida] auris [10] = Antifungal activity against clinical isolate fluconazole-resistant Candida auris CBS12774 assessed as decrease in viable count measured after 24 hrs by colony-counting based time-killing kinetics assay; type: functional, organism-based; details: Candidozyma auris, dose 2-4 µg/ml
Candida albicans [11] = assay: Inhibition of biofilm formation in fluconazole-resistant clinical isolate Candida albicans Gu5 at 8 microg/ml measured after 24 hrs by alamar blue staining based colorimetric analysis; type: functional

With C=C1C(=O)[C@@]2(C)CC[C@@H]3[C@@]1(CC[C@H]1[C@@]3(C)CCC[C@@]1(C)C(=O)OCCCOc1ccc(C(=N)N)cc1)C2 the selectivity ratio [1] was 8, the inhibition ([Candida] auris [2]) was “Dose-Dependent Effect” and the inhibition (Candida albicans [3]) was “Active”. The MIC80 (Candida albicans [4]) was 2 µg/mL (≈ 3.95 µM), the selectivity ratio [5] was 8 and the “fold change (FC)” value (Candida albicans [6]) was ~50. For the same compound, the Activity (Candida albicans [7]) was “Tde”, the MIC80 (Candida albicans [8]) was 1 µg/mL (≈ 1.97 µM) and the Activity (Candida albicans [9]) was “Dose-Dependent Effect”. The Activity ([Candida] auris [10]) was “Dose-Dependent Effect” and the inhibition at 8 µg/mL (Candida albicans [11]) was 81.5%.
